According to PubChem BioAssay (NCI):
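In this assay, cells in 96-well plates receive the compound at five concentrations for 48 hours. Endpoints are linearly interpolated between the surrounding concentrations. GI50 = concentration required for 50% inhibition of growth. TGI is the concentration that stops growth completely.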

Legend:
Test in all cases: DTP human tumour cell line panel, 48 h
K-562 leukemia = system: K-562 leukemia
SF-539 CNS = system: SF-539 CNS
786-0 renal = system: 786-0 renal
SN12C renal = system: SN12C renal
A549 NSCLC = system: A549 NSCLC
SF-295 CNS = system: SF-295 CNS
M14 melanoma = system: M14 melanoma
U251 CNS = system: U251 CNS
UACC-62 melanoma = system: UACC-62 melanoma
DLD-1 colon = system: DLD-1 colon
SNB-19 CNS = system: SNB-19 CNS
NCI-H226 lung = system: NCI-H226 lung
LXFL 529 NSCLC = system: LXFL 529 NSCLC
HOP-62 NSCLC = system: HOP-62 NSCLC
KM20L2 colon = system: KM20L2 colon
CCRF-CEM leukemia = system: CCRF-CEM leukemia
HCC-2998 colon = system: HCC-2998 colon
TK-10 renal = system: TK-10 renal
NCI-H460 lung = system: NCI-H460 lung
SR leukemia = system: SR leukemia
MOLT-4 leukemia = system: MOLT-4 leukemia
SK-MEL-2 melanoma = system: SK-MEL-2 melanoma
HCT-15 colon = system: HCT-15 colon
MALME-3M melanoma = system: MALME-3M melanoma
OVCAR-8 ovarian = system: OVCAR-8 ovarian
HT29 colon = system: HT29 colon
OVCAR-3 ovarian = system: OVCAR-3 ovarian
RPMI-8226 leukemia = system: RPMI-8226 leukemia
UO-31 renal = system: UO-31 renal
DMS 114 small cell lung = system: DMS 114 small cell lung
HL-60(TB) leukemia = system: HL-60(TB) leukemia
HCT-116 colon = system: HCT-116 colon
M19-MEL melanoma = system: M19-MEL melanoma
RXF 393 renal = system: RXF 393 renal
DMS 273 small cell lung = system: DMS 273 small cell lung
XF 498 CNS = system: XF 498 CNS
COLO 205 colon = system: COLO 205 colon
EKVX NSCLC = system: EKVX NSCLC
LOX IMVI melanoma = system: LOX IMVI melanoma
IGROV1 ovarian = system: IGROV1 ovarian
RXF-631 renal = system: RXF-631 renal
SK-MEL-5 melanoma = system: SK-MEL-5 melanoma
SF-268 CNS = system: SF-268 CNS
A498 renal = system: A498 renal
SW-620 colon = system: SW-620 colon
OVCAR-4 ovarian = system: OVCAR-4 ovarian
SNB-75 CNS = system: SNB-75 CNS
ACHN renal = system: ACHN renal
UACC-257 melanoma = system: UACC-257 melanoma
SK-MEL-28 melanoma = system: SK-MEL-28 melanoma
HOP-18 NSCLC = system: HOP-18 NSCLC
KM12 colon = system: KM12 colon
OVCAR-5 ovarian = system: OVCAR-5 ovarian
NCI-H23 lung = system: NCI-H23 lung
CAKI-1 renal = system: CAKI-1 renal
SNB-78 CNS = system: SNB-78 CNS
SK-OV-3 ovarian = system: SK-OV-3 ovarian
HOP-92 NSCLC = system: HOP-92 NSCLC
NCI-H522 lung = system: NCI-H522 lung

O=c1cc(-c2ccc[nH]2)[nH]c2cc3c(cc12)OCO3
TGI (K-562 leukemia): > 100 µM
TGI (SF-539 CNS): 84.6 µM
TGI (786-0 renal): > 100 µM
TGI (SN12C renal): > 100 µM
TGI (A549 NSCLC): > 100 µM
GI50 (SF-295 CNS): 33.8 µM
TGI (SF-295 CNS): > 100 µM
TGI (M14 melanoma): > 100 µM
TGI (U251 CNS): > 100 µM
TGI (UACC-62 melanoma): > 100 µM
TGI (DLD-1 colon): > 100 µM
TGI (SNB-19 CNS): > 100 µM
GI50 (NCI-H226 lung): 35.3 µM
TGI (NCI-H226 lung): > 100 µM
TGI (LXFL 529 NSCLC): > 100 µM
TGI (HOP-62 NSCLC): 93.5 µM
GI50 (KM20L2 colon): 20.1 µM
TGI (KM20L2 colon): 42.6 µM
TGI (CCRF-CEM leukemia): > 100 µM
TGI (HCC-2998 colon): 86.5 µM
TGI (TK-10 renal): > 100 µM
TGI (NCI-H460 lung): > 100 µM
TGI (SR leukemia): > 100 µM
TGI (MOLT-4 leukemia): > 100 µM
TGI (SK-MEL-2 melanoma): > 100 µM
TGI (HCT-15 colon): > 100 µM
TGI (MALME-3M melanoma): > 100 µM
TGI (OVCAR-8 ovarian): > 100 µM
TGI (HT29 colon): > 100 µM
GI50 (OVCAR-3 ovarian): 30.8 µM
TGI (OVCAR-3 ovarian): > 100 µM
TGI (RPMI-8226 leukemia): > 100 µM
TGI (UO-31 renal): > 100 µM
GI50 (DMS 114 small cell lung): 32.5 µM
TGI (DMS 114 small cell lung): > 100 µM
TGI (HL-60(TB) leukemia): 83.6 µM
GI50 (HCT-116 colon): 29.4 µM
TGI (HCT-116 colon): > 100 µM
TGI (M19-MEL melanoma): > 100 µM
GI50 (RXF 393 renal): 15.9 µM
TGI (RXF 393 renal): 47 µM
TGI (DMS 273 small cell lung): > 100 µM
TGI (XF 498 CNS): 89.2 µM
TGI (COLO 205 colon): 60.3 µM
TGI (EKVX NSCLC): > 100 µM
TGI (LOX IMVI melanoma): > 100 µM
TGI (IGROV1 ovarian): > 100 µM
TGI (RXF-631 renal): > 100 µM
GI50 (SK-MEL-5 melanoma): 7.74 µM
TGI (SK-MEL-5 melanoma): > 100 µM
GI50 (SF-268 CNS): > 100 µM
TGI (SF-268 CNS): > 100 µM
TGI (A498 renal): 74.3 µM
TGI (SW-620 colon): > 100 µM
TGI (OVCAR-4 ovarian): 56 µM
TGI (SNB-75 CNS): 68.9 µM
TGI (ACHN renal): > 100 µM
TGI (UACC-257 melanoma): > 100 µM
TGI (SK-MEL-28 melanoma): > 100 µM

O=C(Nc1ccccc1)OCc1nc2c([nH]1)C(=O)C=CC2=O
TGI (K-562 leukemia): 7.36 µM
TGI (SF-539 CNS): > 100 µM
TGI (786-0 renal): 32.5 µM
TGI (SN12C renal): 36.3 µM
TGI (A549 NSCLC): 31.9 µM
TGI (SF-295 CNS): 33.1 µM
TGI (HOP-18 NSCLC): 23 µM
TGI (M14 melanoma): 29.8 µM
TGI (U251 CNS): 25.5 µM
TGI (UACC-62 melanoma): 36.9 µM
TGI (DLD-1 colon): > 100 µM
TGI (KM12 colon): 29 µM
TGI (SNB-19 CNS): 28.5 µM
TGI (NCI-H226 lung): 33.3 µM
TGI (LXFL 529 NSCLC): 11.1 µM
TGI (OVCAR-5 ovarian): 36.8 µM
TGI (HOP-62 NSCLC): > 100 µM
TGI (KM20L2 colon): 41 µM
TGI (CCRF-CEM leukemia): 13.1 µM
TGI (HCC-2998 colon): 30.1 µM
TGI (TK-10 renal): 27 µM
TGI (NCI-H460 lung): 36.8 µM
TGI (NCI-H23 lung): 40 µM
TGI (SR leukemia): 51.7 µM
TGI (MOLT-4 leukemia): 6.71 µM
TGI (SK-MEL-2 melanoma): 34.2 µM
TGI (HCT-15 colon): 38 µM
TGI (MALME-3M melanoma): 18.3 µM
TGI (CAKI-1 renal): 13.4 µM
TGI (OVCAR-8 ovarian): 34 µM
TGI (SNB-78 CNS): 45.3 µM
TGI (HT29 colon): 58.5 µM
TGI (OVCAR-3 ovarian): 30.8 µM
TGI (RPMI-8226 leukemia): 51.1 µM
TGI (UO-31 renal): 30.5 µM
TGI (SK-OV-3 ovarian): 29.3 µM
TGI (HL-60(TB) leukemia): 15.2 µM
TGI (HCT-116 colon): 28.4 µM
TGI (M19-MEL melanoma): 29.5 µM
TGI (RXF 393 renal): 23 µM
TGI (DMS 273 small cell lung): 42 µM
TGI (XF 498 CNS): 30.9 µM
TGI (COLO 205 colon): 3.94 µM
TGI (EKVX NSCLC): 41 µM
TGI (LOX IMVI melanoma): 30.9 µM
TGI (IGROV1 ovarian): 30.7 µM
TGI (SK-MEL-5 melanoma): 27.3 µM
TGI (A498 renal): 30.1 µM
TGI (SW-620 colon): 8.79 µM
TGI (HOP-92 NSCLC): 45.1 µM
TGI (OVCAR-4 ovarian): 28 µM
TGI (SNB-75 CNS): 37.1 µM
TGI (ACHN renal): 25.2 µM
TGI (UACC-257 melanoma): 13.7 µM
TGI (SK-MEL-28 melanoma): 30.5 µM

Oc1cccc2nc3cc(CN4CCOCC4)c(CN4CCOCC4)cc3nc12
TGI (K-562 leukemia): > 100 µM
TGI (SF-539 CNS): > 100 µM
TGI (786-0 renal): > 100 µM
TGI (SN12C renal): > 100 µM
TGI (A549 NSCLC): > 100 µM
TGI (SF-295 CNS): > 100 µM
TGI (HOP-18 NSCLC): > 100 µM
TGI (M14 melanoma): 38.9 µM
TGI (U251 CNS): > 100 µM
TGI (UACC-62 melanoma): 76.8 µM
TGI (DLD-1 colon): > 100 µM
TGI (KM12 colon): > 100 µM
TGI (SNB-19 CNS): > 100 µM
TGI (NCI-H226 lung): > 100 µM
TGI (LXFL 529 NSCLC): > 100 µM
TGI (OVCAR-5 ovarian): > 100 µM
TGI (HOP-62 NSCLC): > 100 µM
TGI (KM20L2 colon): > 100 µM
TGI (CCRF-CEM leukemia): > 100 µM
TGI (HCC-2998 colon): > 100 µM
TGI (TK-10 renal): > 100 µM
TGI (NCI-H460 lung): > 100 µM
TGI (NCI-H23 lung): > 100 µM
TGI (SR leukemia): > 100 µM
TGI (MOLT-4 leukemia): > 100 µM
TGI (SK-MEL-2 melanoma): > 100 µM
TGI (HCT-15 colon): > 100 µM
TGI (MALME-3M melanoma): > 100 µM
TGI (CAKI-1 renal): > 100 µM
TGI (OVCAR-8 ovarian): > 100 µM
TGI (SNB-78 CNS): > 100 µM
TGI (HT29 colon): > 100 µM
TGI (OVCAR-3 ovarian): > 100 µM
TGI (UO-31 renal): > 100 µM
TGI (SK-OV-3 ovarian): > 100 µM
TGI (HL-60(TB) leukemia): > 100 µM
TGI (HCT-116 colon): > 100 µM
TGI (M19-MEL melanoma): 66.5 µM
TGI (RXF 393 renal): > 100 µM
TGI (DMS 273 small cell lung): > 100 µM
TGI (XF 498 CNS): > 100 µM
TGI (COLO 205 colon): > 100 µM
TGI (EKVX NSCLC): > 100 µM
TGI (NCI-H522 lung): > 100 µM
TGI (LOX IMVI melanoma): > 100 µM
TGI (IGROV1 ovarian): > 100 µM
TGI (RXF-631 renal): > 100 µM
TGI (SK-MEL-5 melanoma): 55.3 µM
TGI (SF-268 CNS): > 100 µM
TGI (A498 renal): > 100 µM
TGI (SW-620 colon): > 100 µM
TGI (HOP-92 NSCLC): > 100 µM
TGI (OVCAR-4 ovarian): > 100 µM
TGI (SNB-75 CNS): > 100 µM
TGI (ACHN renal): > 100 µM
TGI (UACC-257 melanoma): > 100 µM
TGI (SK-MEL-28 melanoma): > 100 µM
